Here are results for 11 compounds from US4382940A (priority 1979, dated 1983).

Read-outs that look alike come from different tables or passages of the source.

As usually defined, the ED50 is the dose that gives a 50% effect, or the effect in half of the subjects. A word on the LD50: it is the dose expected to kill half of the subjects tested. Low values mean a more toxic substance, high ones a less toxic substance.

In data set [1] the test system is central amphetamine-induced hypothermia. Put plainly: antagonism to central amphetamine-induced hypothermia. The conditions noted are these: Mus musculus, po, read-out: Amphetamine antagonism (ED50).
Data set [2] can be described thus: orientative acute toxicity (7 days observation, Irwin's observational assessment of mouse behavior). The conditions noted are these: mouse, in vivo, po.
The test system of data set [3] is reserpine-induced blepharospasm. Put plainly: antagonism to reserpine-induced blepharospasm. The class given is in vivo, male mice. The note with it: Mus musculus, po, 3 h, read-out: Reserpine antagonism, Blepharospasm (ED50). As for the experimental part:
(§1) The tests were performed in an air-conditioned room at the constant temperature of 19°±1° C. Randomized groups of male mice were respectively treated by gavage with appropriate screening doses (from a maximum of 25 mg/kg below) of the test compounds, suspended in the vehicle (Methocel 0.5%; 1 ml/100 g b.w.), or with the vehicle alone.
(§2) One hour later the animals received an i.p. injection of reserpine (1.5 mg/kg; 1 ml/100 g b.w.), and one of the control groups the same volume of the vehicle alone (blank controls). Three hours after pretreatments, i.e. two hours after reserpine or vehicle treatments, blepharospasm was evaluated in scores as proposed by RUBIN et al. (J. Pharmacol., 120:125, 1957).

Data set [4] has as its system reserpine-induced hypothermia. Kind of data set: antagonism to reserpine-induced hypothermia. The data set is classed as in vivo. The conditions noted are these: Mus musculus, po; gavage 1 h before reserpine 1.5 mg/kg i.p.; rectal temperature 2 h after blepharospasm evaluation; male mice. On the procedure:
as §1, §2
Two hours after the above-mentioned evaluation the rectal temperature of the animals was recorded by an appropriate probe connected to a digital thermometer (ELLAB DU-3).

Another data set has as its system mouse. Put plainly: orientative acute toxicity (7 days observation, Irwin's observational assessment of mouse behavior). The conditions noted are these: in mice; imipramine compared with title compounds.

For the compound `CCCN1C[C@H](COC=CC(C)=O)C[C@@H]2c3cccc4[nH]cc(c34)C[C@H]21` [355/1363, 6-Propyl-8-[(3-buten-2-one)-4-oxymethyl]-ergoline], the ED50 in data set [1] is 2.4 mg/kg. In addition, in data set [2], the LD50 at 168 h was found to be 400 mg/kg.

As for `CN1C[C@H](CNC2=CC(=O)CC2)C[C@@H]2c3cccc4[nH]cc(c34)C[C@H]21` [355/1206, 6-Methyl-8-[(2-cyclopentenon)-3-aminomethyl]-ergoline], the figures for the ED50 in data set [3] and in data set [4] were 3.1 mg/kg and 7.7 mg/kg, respectively. The LD50 at 168 h in data set [2] was > 800 mg/kg.

For the compound `CC(=CC#N)OC[C@@H]1C[C@@H]2c3cccc4[nH]cc(c34)C[C@H]2N(C)C1` [355/1311, 6-Methyl-8-[(3-methylacrylic nitrile)-3-oxymethyl]-ergoline], the ED50 in data set [3] worked out at 1.5 mg/kg; in data set [4], 3.4 mg/kg. Moreover, the LD50 at 168 h in data set [2] worked out at 300 mg/kg.

As to `CN(C)CCCN1c2ccccc2CCc2ccccc21` [imipramine, reference compound], the median effective dose (ED50) in data set [3] (gavage 1 h before reserpine 1.5 mg/kg i.p., scored 2 h after reserpine, male mice) is 3.1 mg/kg; in data set [4], 18.2 mg/kg. For the same compound, the “orientative acute toxicity (in words)” value in the data set on mouse was “quite higher orientative acute toxicity”.

`CN1C[C@H](COC2=CC(=O)CC2)C[C@@H]2c3cccc4[nH]c(Cl)c(c34)C[C@H]21` [355/1335, 2-Chloro-6-methyl-8-[(2-cyclopentenon)-3-oxymethyl]-ergoline]: the figures for the ED50 in data set [3] and in data set [4] were 0.2 mg/kg and 0.3 mg/kg, respectively. In data set [2], this compound registered an LD50 at 168 h of 200 mg/kg.

Regarding `CSc1[nH]c2cccc3c2c1C[C@@H]1[C@@H]3C[C@@H](COC=CC(C)=O)CN1C` [355/1357, 2-Thiomethyl-6-methyl-8-[(3-buten-2-one)-4-oxymethyl]-ergoline], the ED50 in data set [1] came out at 2.5 mg/kg. Also, in data set [2], the LD50 at 168 h was > 300 mg/kg.

In the case of `Cc1[nH]c2cccc3c2c1C[C@@H]1[C@@H]3C[C@@H](COC2=CC(=O)CC2)CN1C` [355/1301, 2,6-Dimethyl-8-[(2-cyclopentenon)-3-oxymethyl]-ergoline], the ED50 in data set [3] came to 0.46 mg/kg; in data set [4], 0.57 mg/kg. This compound also yielded an LD50 at 168 h in data set [2] of 300 mg/kg.

Consider `CN1C[C@H](CNC2=CC(=O)CC2)C[C@@H]2c3cccc4c3c(cn4C)C[C@H]21` [355/1295, 1,6-Dimethyl-8-[(2-cyclopentenon)-3-aminomethyl]-ergoline], for which, in data set [1], the ED50 came to 1.8 mg/kg. In addition, the LD50 at 168 h in data set [2] is > 400 mg/kg.

Regarding `CC(=O)C=C(C)OC[C@@H]1C[C@@H]2c3cccc4[nH]cc(c34)C[C@H]2N(C)C1` [355/1171, 6-Methyl-3-[(3-buten-2-one-4-methyl)-4-oxymethyl]-ergoline], the ED50 in data set [1] was 0.023 mg/kg. Further, in data set [2], the LD50 at 168 h is > 800 mg/kg.

As for `CO[C@]12C[C@@H](COC3=CC(=O)CC3)CN(C)[C@@H]1Cc1cn(C)c3cccc2c13` [355/1240, 1,6-Dimethyl-8-[(2-cyclopentenon)-3-oxymethyl]-10-methoxyergoline], in data set [1], the ED50 was 1.8 mg/kg. In data set [2], this compound had an LD50 at 168 h of 200 mg/kg.

For the compound `CN1C[C@H](COC2=CC(=O)CC2)C[C@@H]2c3cccc4[nH]cc(c34)C[C@H]21` [355/1228, 6-Methyl-8-[(2-cyclopentenon)-3-oxymethyl]-ergoline], the ED50 in data set [3] came out at 0.14 mg/kg; in data set [4] it was 0.39 mg/kg. In addition, the LD50 at 168 h in data set [2] was > 600 mg/kg.
